Laboratory results reported in a compilation of properties of binary mixtures (doi:10.1016/j.molliq.2018.09.007).

Assay: xn = mol fraction of the nth substance listed
Conditions: 100 kPa

CN(C)C=O + CC[n+]1ccn(C)c1.O=S(=O)([O-])C(F)(F)F
x1 = 1
Conditions | speed of sound [m/s] | viscosity [mPa·s]
303.15 K | 1449.1 | 0.77
308.15 K | 1435.2 | 0.72
313.15 K | 1421.2 | 0.69
318.15 K | 1407.2 | 0.65
323.15 K | 1393.6 | 0.62

OCCO + CC[n+]1ccn(C)c1.O=S(=O)([O-])C(F)(F)F
x1 = 1
Conditions | speed of sound [m/s] | viscosity [mPa·s]
298.15 K | 1655 | 16.39
303.15 K | 1643.2 | 13.49
313.15 K | 1619.7 | 9.34
323.15 K | 1596.1 | 6.75

CC[n+]1ccn(C)c1.O=S(=O)([O-])C(F)(F)F + OCCO
Conditions | speed of sound [m/s] | viscosity [mPa·s]
298.15 K, x2 = 0.0943 | 1446 | 36.77
298.15 K, x2 = 0.2021 | 1453.2 | 29.22
298.15 K, x2 = 0.2937 | 1457.1 | 24.13
298.15 K, x2 = 0.408 | 1464.6 | 20.68
298.15 K, x2 = 0.5013 | 1473.4 | 18.72
298.15 K, x2 = 0.6019 | 1488.5 | 17.52
298.15 K, x2 = 0.6917 | 1510.9 | 16.97
298.15 K, x2 = 0.8964 | 1586.6 | 16.51
303.15 K, x2 = 0.2021 | 1442.1 | 24.77
303.15 K, x2 = 0.2937 | 1445.9 | 20.6
303.15 K, x2 = 0.408 | 1453.3 | 17.93
303.15 K, x2 = 0.5013 | 1462.1 | 16.38
303.15 K, x2 = 0.6019 | 1477.2 | 15.41
303.15 K, x2 = 0.6917 | 1499.5 | 14.89
303.15 K, x2 = 0.798 | 1532.6 | 14.39
303.15 K, x2 = 0.8964 | 1575.1 | 13.74
308.15 K, x2 = 0.0943 | 1423.9 | 26.23
308.15 K, x2 = 0.2021 | 1430.9 | 21.17
308.15 K, x2 = 0.2937 | 1434.8 | 17.74
308.15 K, x2 = 0.408 | 1442.2 | 15.7
308.15 K, x2 = 0.5013 | 1451 | 14.49
308.15 K, x2 = 0.6917 | 1488.2 | 13.23
308.15 K, x2 = 0.798 | 1521.5 | 12.63
313.15 K, x2 = 0.0943 | 1412.8 | 22.47
313.15 K, x2 = 0.2021 | 1419.9 | 18.26
313.15 K, x2 = 0.2937 | 1423.8 | 15.41
313.15 K, x2 = 0.5013 | 1439.9 | 12.93
313.15 K, x2 = 0.6019 | 1454.8 | 12.31
313.15 K, x2 = 0.6917 | 1477 | 11.88
313.15 K, x2 = 0.798 | 1509.9 | 11.22
313.15 K, x2 = 0.8964 | 1552.1 | 10.22
318.15 K, x2 = 0.2021 | 1409.1 | 15.91
318.15 K, x2 = 0.2937 | 1412.9 | 13.52
318.15 K, x2 = 0.408 | 1420.2 | 12.38
318.15 K, x2 = 0.5013 | 1428.8 | 11.66
318.15 K, x2 = 0.6019 | 1443.7 | 11.17
318.15 K, x2 = 0.6917 | 1465.7 | 10.76
318.15 K, x2 = 0.798 | 1498.5 | 10.07
318.15 K, x2 = 0.8964 | 1540.6 | 8.97
323.15 K, x2 = 0.2937 | 1402 | 11.94
323.15 K, x2 = 0.5013 | 1417.9 | 10.58
323.15 K, x2 = 0.6019 | 1432.7 | 10.2
323.15 K, x2 = 0.6917 | 1454.6 | 9.84
323.15 K, x2 = 0.798 | 1487.2 | 9.13
323.15 K, x2 = 0.8964 | 1529.1 | 7.95
